Measurements from paper PMC3673949, “Small Molecule R1498 as a Well-Tolerated and Orally Active Kinase Inhibitor for Hepatocellular Carcinoma and Gastric Cancer Treatment via Targeting Angiogenesis and Mitosis Pathways” (PLoS ONE, 2013).

Columns and labels:
phospho-histone H3 (S10) = experiment: Immunofluorescence / western blot of Aurora B activity marker in SGC-7901; assay type: cell-based, human
Procedure: Cell lysate was prepared in RIPA buffer and quantified by the bicinchoninic acid (BCA) method (Pierce, Rockford, IL). Thirty micrograms of protein per sample was loaded onto a 4∼12% NuPAGE® Novex SDS gel (Invitrogen). The protein was transferred by an iBlot® dry blotting device (Invitrogen) onto nitrocellulose membranes. After blocking nonspecific binding with TBS/Tween20 (0.1%) (TBS/T) containing 5% non-fat milk for 1 h at room temperature, the membrane was incubated in phospho-Aurora A (Thr288) (C39D8) rabbit monoclonal antibody (Cell Signaling Technology, CST #3079, Beverly, MA) or phospho-Histone H3 (Ser10) rabbit polyclonal antibody (CST#9701) (1∶1000 in TBS/T containing 3% bovine serum albumin (BSA), and gently shaken at 4°C overnight. The membrane was washed with TBS/T three times to remove the unbound antibody, then incubated with the secondary antibody (HRP-conjugated goat anti-mouse IgG or goat anti-rabbit IgG, 1∶10000, KangChen Biotech, Shanghai, China) for 1 h at room temperature, respectively. Protein bands were visualized with an enhanced chemiluminescence (ECL) kit (Pierce, Rockford, IL). […]

tubulin = experiment: In vitro tubulin polymerization assay; assay type: biochemical; conditions: 40 µM, OD340
Procedure: In vitro tubulin polymerization assay was performed as described previously.

BEL-7402 xenograft = experiment: Xenograft efficacy study; assay type: in vivo, BALB/C nu/nu nude mice
Procedure: Tumor cells were inoculated into the right flank of BALB/C nu/nu female nude mice (5∼6 weeks, 16∼18 g, obtained from Sino-British SIPPR/BK Lab. Animal Ltd, Shanghai, China) at optimal density based on our in-house validation study. After the tumor was established and reached 100∼150 mm^3, the mice were randomized into ten mice per group and received treatment according to the schedule. The tumor growth was recorded three times a week with the measurement of length (L) and width (W) by caliper, and calculated as tumor volume (TV, mm^3) = 0.5*L*W*W (mm). […] The tumor regression of individual mouse was defined - the tumor volume at the end was less than the tumor volume when treatment was initiated.

CD31 = experiment: Immunohistochemistry of BEL-7402 tumors, angiogenesis marker; assay type: in vivo, BALB/C nu/nu nude mice; conditions: BEL-7402 tumors from efficacy study
Procedure: The 8 µm paraffin embedded tumor tissue slides prepared from tumor of in vivo efficacy studies were heated in a dry oven at 60°C for 1 hour, then deparaffinized and hydrolyzed by Leica autostainer XL ST5010 at room temperature. Antigen retrieval was carried out at 95∼99°C in citrate buffer (0.01 M, pH 6.0) heated by a medical microwave at 92–98°C for 5 min, then cooled down to room temperature. Then peroxidase-blocking reagent (DAKO, DK-2600, Glostrup Denmark) was applied to quench the endogenous peroxidase. The slides were incubated in blocking serum for 20 min, then covered by 100 µL phospho-Aurora A (Thr288) (C39D8) rabbit mAb (CST #3079, 1∶200 in TBS/T) or rabbit anti-human CD31 polyclonal antibody (Santa Cruz Biotech, sc-8306, Santa Cruz, CA, USA; 1∶200 in TBS/T) at 4°C overnight, then incubated in 100 µL DAKO Envision+/HRP, rabbit/mouse after being washed thoroughly with TBS. One hundred micro liters of substrate-chromogenic solution (DAB) were applied to the slides and incubated at room temperature for 10 min. The slides were rinsed gently with tap water for 15 min. Counterstain and dehydration was performed by XL ST5010 at room temperature. Finally, the slides were mounted with Permount mounting medium (Fisher Scientific, Miami, FL).

[1] = Metabolite profile in pooled liver microsomes; assay type: in vitro ADME
Procedure: Supplementary file pone.0065264.s005.doc: Table S4 Metabolite profiles in pooled liver microsomes. Pooled liver microsomes were incubated with R1498 and the metabolites were identified to predict the most close species to human. (DOC) Click here for additional data file.

[2] = Dose range finding and toxicokinetic study; assay type: in vivo
Procedure: Dose range finding and toxicokinetic study was carried out in rats and Beagle dogs based on in vitro metabolites identification. Wistar rats (male: 3, female 3 in each group, from Vital River, Beijing, China) were fasted overnight, and then received test articles as 0, 6.25, 50 and 100 mg/kg twice a day per oral gavage for a 14-day continuous regimen. Motility observation was applied on a daily bases to find the maximum tolerant dose for the animals. The animals were sacrificed on d14, and the following toxicology observation were carried out including body weight changes, clinical observation, gross necropsy, hematology chemistry and histopathology. On day 1 and day 14, blood samples were obtained via jugular vein puncture from all animals (if alive, using EDTA-K2 tubes). Samples were mixed gently and placed on crushed wet-ice until centrifugation, which was carried out immediately. The samples were centrifuged for approximately 15 minutes at 4°C 2,700 rpm. The resultant plasma was separated, transferred to uniquely labeled clear polypropylene tubes and frozen immediately over solid carbon dioxide (dry ice) until transferred to approximately −80°C. Each animal was bled at the following time points: approximately 5 min, 15 min, 30 min, 1, 2, 4, 8 and 24 hours post first dose on the specific day. The drug concentrations in the plasma were determined by LC-MS/MS. The pharmacokinetic analysis was performed using WinNonlin software (Version 5.2, Pharsight Corporation, CA, USA), and the pharmacokinetic parameters were calculated using a Non-compartmental model method.
Beagle dogs (approximately 8–10 months, from Beijing Marshall Biotechnology Co. Ltd., Beijing, China) were subjected to the study protocol as described above. Each group has one male and one female dog, the dosages of test article were: 0, 1, 7.5 and 15 mg/kg, respectively.

[3] = test system: cyclin-dependent kinase 2 (CDK2); design: method as in PMID 20832307; conditions: previously identified; cited from earlier work

SMILES: COc1ccc2c(c1)C(c1ccccc1Cl)=Nc1c(n[nH]c1C)N2 [R1498]
- phospho-histone H3 (S10) (immunofluorescence) (phospho-histone H3 (S10); SGC-7901, 5 µM, 24 h): decreased sharply
- phosphorylation of phospho-histone H3 (S10) (western blot) (phospho-histone H3 (S10); SGC-7901 synchronized with nocodazole, various concentrations, acute treatment): decreased in a concentration-dependent manner
- effect on microtubule polymerization (tubulin): neither stabilized nor destabilized microtubule polymerization
- Final TGI% (BEL-7402 xenograft; BEL-7402, 25 mg/kg twice a day per oral gavage, day of study termination): 102%
- Body weight changes% (BEL-7402 xenograft; BEL-7402, 25 mg/kg twice a day per oral gavage, before vs after treatment): 2%
- Tumor Regression (BEL-7402 xenograft; BEL-7402, 25 mg/kg twice a day per oral gavage, mice with regression/group): 8/10
- Final TGI% (BEL-7402 xenograft; BEL-7402, 3.125 mpk, bid, PO): 56%
- Final TGI% (BEL-7402 xenograft; BEL-7402, 6.25 mpk, bid, PO): 69%
- Final TGI% (BEL-7402 xenograft; BEL-7402, 12.5 mpk, bid, PO): 90%
- CD31 staining in tumors (CD31): decreased in a dose-dependent manner
- Parent (M0) ([1]; Dog pooled liver microsomes): 99.0
- Total M% ([1]; Dog pooled liver microsomes): 1.0%
- Parent (M0) ([1]; Human pooled liver microsomes): 91.9
- Total M% ([1]; Human pooled liver microsomes): 8.1%
- Parent (M0) ([1]; Monkey pooled liver microsomes): 43.3
- Total M% ([1]; Monkey pooled liver microsomes): 56.7%
- Parent (M0) ([1]; Mouse pooled liver microsomes): 94.8
- Total M% ([1]; Mouse pooled liver microsomes): 5.2%
- Parent (M0) ([1]; Rat pooled liver microsomes): 90.8
- Total M% ([1]; Rat pooled liver microsomes): 9.2%
- MTD at 2 week ([2]; both sexes, dog, in vivo, po, beagle dogs (F/M), 2-week DRF, bid dosing): > 15 mg/kg
- AUC(0-t) ([2]; both sexes, dog, plasma, po, 15 mg/kg, beagle dogs, at highest dose, read-out: MTD AUC0-24): > 111 µg·h/mL
- Histopathology results ([2]; dogs, 0, 1, 7.5, 15 mg/kg, 2-week DRF): no significant findings at all doses
- dose at which body weight loss began ([2]; female dog): 7.5 mg/kg
- CDK2 inhibition [3]: weak
